# Source: patent US20120288482A1, “THERAPEUTIC AGENT (Y-39983) FOR CORNEAL ENDOTHELIAL DYSFUNCTION” (priority 2009, published 2012)
# Tests used:
# [1] = tested on: corneal endothelial wound; experiment: Rabbit corneal endothelial wound model, topical instillation (Example 1); type: in vivo; settings: 10 mM instillation, 6 times a day, 46 hours after wound creation
# Protocol: In this Example, 0.95 mM (0.03 w/v%) compound (I) instillation and 0.32 mM (0.01 w/v%) compound (I) instillation obtained by diluting the above instillation with the above-mentioned vehicle were used.
# As a positive control substances, Y-27632 dihydrochloride (Wako Pure Chemical Industries, Co., Ltd., Cat. #253-00513) and fasudil hydrochloride hydrate injection (Eril (registered trade mark) drip intravenous injection, Asahi Kasei Pharma) were purchased, and Y-27632 and Fasudil were each adjusted to 10 mM with phosphate-buffered saline (PBS, Invitrogen, Cat. #14190). In addition, PBS was used as a negative control substance.
# Male Japanese white rabbits (body weight 2.5-3.0 kg, 21 rabbits) were purchased from Biotek Co., Ltd. and used. They are kept in individual cages at 23±3° C. temperature, at 55±10% humidity and 12 hours artificial light cycle (lighting on; 8:00 a.m., lighting off; 8:00 p.m.). One hundred grams of solid food (Labo R stock; Nosan Corp.) are provided daily to each animal. Water is supplied by automatic watering apparatus.
# 3. Excision of Nictitating Membrane of Animal Before starting the test, the nictitating membrane of both eyes of the animal was excised. To be specific, each animal was set in a positioner, and the ocular surface was topically anesthetized by instillation of a topical anesthesia (Benoxil instillation 0.4%, Santen Pharmaceutical Co., Ltd.). Then, the root position of the nictitating membrane was pressed with a clamp for 30 sec, and compressing mark was cut with scissors. After excision of the nictitating membrane, the antibiotic ointment (tarivid eye ointment, Santen Pharmaceutical Co., Ltd.) was instilled to prevent infection. After 4 days from the excision of the nictitating membrane, animals confirmed to have no abnormality in the external eye including the excised site were used.
# The corneal thickness of the right eye of each animal was measured with an ultrasonic pachymeter (manufactured by DGH Technologies Inc., DGH-500), and the animals were divided into 4 groups such that the corneal thickness of each group was equal. The animals used for each group were as follows. • 10 mM Y-27632 group=5 eyes • 0.32 mM compound (I) group=5 eyes • 0.95 mM compound (I) group=6 eyes • 10 mM Fasudil group=5 eyes • PBS group=21 eyes (left eye)
# The animals were sytemically anesthetized by intramuscular administration of Ketalar muscular injection ([…], DAIICHI SANKYO COMPANY, LIMITED., 0.6 ml) and Celactal 2% Injection (Bayer, Ltd., 0.25 ml). Then, Benoxil instillation 0.4% (Santen Pharmaceutical Co., Ltd., one drop) was instilled and the eye was opened using a lid speculum.
# A 7-mm diameter stainless dowel that had been cooled in liquid nitrogen was placed on the central cornea of both eyes of 21 animals for 15 sec. to produce an ice ball in the anterior chamber and dissociate corneal endothelial cells, whereby a corneal endothelial wound was produced.
# For topical instillation, after wound creation, compound (I) instillation, Y-27632 instillation or Fasudil instillation was instilled to the right eye, and PBS was instilled to the left eye 6 times a day (4 times on the day of wound production) at 50 μL per instillation. Administration interval in one day was 2 hours. […]
# [2] = tested on: cultured monkey corneal endothelial cells; settings: in vitro; cited from earlier work
structure (smiles),measurement,setting,value
O=S(=O)(c1cccc2cnccc12)N1CCCNCC1 [Fasudil],area of the unrepaired wound site (corneal endothelium wound area),[1],1.7 mm^2
same,apoptosis,[2],suppression of apoptosis
same,cell adhesion,[2],promotion of cell adhesion
same,cell cycle,[2],promotion of cell cycle
